In BindingDB's records for doi:10.1016/j.chembiol.2008.02.015 (University of Dundee, 2008):
Numbered stars: 1 amine (or outer) side, 2 acyl side, 3 side chain; on linkers, the order of the positions; unused ones are H or OH. Square brackets hold non-standard residues; d marks the D form. Side chains are listed from the residue outwards. Peptide text beside a SMILES is read from it. NMeF = CN[C@@H](Cc1ccccc1)C(=O)O; CO = O=C([*:1])[*:2]

Legend:
Chitotriosidase-1 = Chitotriosidase-1 (Homo sapiens, UniProt Q13231); experiment: Inhibition Assay; conditions: pH 5.5
Chitotriosidase-1, sequence (Q13231 whole entry): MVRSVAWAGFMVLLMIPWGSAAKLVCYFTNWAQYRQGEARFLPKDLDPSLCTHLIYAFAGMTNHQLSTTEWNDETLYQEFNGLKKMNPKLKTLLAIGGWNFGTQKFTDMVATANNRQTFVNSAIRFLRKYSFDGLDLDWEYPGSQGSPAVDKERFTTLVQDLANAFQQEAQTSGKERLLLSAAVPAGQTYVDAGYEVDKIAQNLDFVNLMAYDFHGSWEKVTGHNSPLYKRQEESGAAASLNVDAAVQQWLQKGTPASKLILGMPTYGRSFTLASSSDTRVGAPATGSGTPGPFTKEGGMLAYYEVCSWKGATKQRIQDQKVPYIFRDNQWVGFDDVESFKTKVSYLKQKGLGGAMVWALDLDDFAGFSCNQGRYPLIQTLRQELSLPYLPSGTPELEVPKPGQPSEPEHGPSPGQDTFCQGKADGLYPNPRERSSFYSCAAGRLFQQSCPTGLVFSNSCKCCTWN

Endochitinase B1 = Endochitinase B1 (Aspergillus fumigatus, UniProt Q873X9); experiment: Inhibition Assay; conditions: pH 5.5

IC50 (Chitotriosidase-1) [µM] | Compound | IC50 (Endochitinase B1) [µM]
190 | CNC(=O)NC(=N)NCCC[C@H](NC(C)=O)C(=O)N(C)[C@@H](Cc1ccccc1)C(=O)O | 
 | CNC(=O)NC(=N)NCCC[C@@H]1NC(=O)[C@@H](C)NC(=O)C[C@@H](C(=O)O)NC(=O)C[C@@H](C(=O)O)NC(=O)[C@H](Cc2ccccc2)N(C)C1=O [(2R,5S,8S,11S,15S)-8-benzyl-2,7-dimethyl-5-[3-({[(methylcarbamoyl)amino]methanimidoyl}amino)propyl]-3,6,9,13,17-pentaoxo-1,4,7,10,14-pentaazacycloheptadecane-11,15-dicarboxylic acid] | 0.027
1000 | CNC(=O)NC(N)=NCCC[C@H](NC(C)=O)C(=O)NC [Monopeptide] | 
28 | CNC(=O)NC(N)=NCCC[C@H](NC(=O)[C@@H](C)NC(C)=O)C(=O)N(C)[C@@H](Cc1ccccc1)C(=O)N[C@@H](CC(=O)O)C(=O)O [Tetrapeptide] | 

Compound | IC50 (Chitotriosidase-1) [µM] | IC50 (Endochitinase B1) [µM]
[H]/N=C(\NC)NC(=O)NC [Argifin-Derived Fragments, 1] | 5800 | 500
CNC(=O)NC(N)=NCCC[C@H](NC(C)=O)C(=O)N(C)[C@@H](Cc1ccccc1)C(=O)N[C@@H](CC(=O)O)C(=O)O [Tripeptide] (Ac-Arg([CO-NHMe])-[NMeF]-Asp-OH) | 68 | 5.1
